Counter-ions that a name gives are not always drawn. Like-named read-outs stand apart in the source and are kept apart here.
Tests used:
SUDHL5 [1] = test: Induction of caspase-3/7 activity (Caspase-Glo 3/7), SUDHL5; format: cell-based; details: caspase-3/7 induction, SUDHL5 cells, 3 h treatment; median
In short: (§1)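 A 3 h, 37 °C compound incubation precedes the Caspase-Glo 3/7 read. After subtracting medium-only signal, EC50s are fitted against the reference compound's maximal caspase induction.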

SUDHL5 [2] = test: Anti-proliferative effect (CellTiter-Glo, 72 h), SUDHL5; format: cell-based; details: SUDHL5 cells, antiproliferation, 72 h incubation, median, read-out: Antiproli SUDHL5 [M] (median)
In short: (§2)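 Endpoint: CellTiter-Glo luminescence, 10 min after reagent addition. Treatment ran 72 h at 37 °C, humidified. Growth was referenced to a separately plated day 0 plate.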

MCL-1 = MCL-1 (Homo sapiens, UniProt Q07820); test: Protein-protein interaction assay MCL-1/Noxa BH3 peptide (MCL-1 assay), TR-FRET; format: binding; details: MBP-MCL-1 / Noxa BH3-derived peptide, median
In short: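 Steady-state competition, MCL-1/Noxa BH3, TR-FRET readout; 1 nM MBP-MCL-1, 11-point dose series 0.1 nM–20 μM; overnight 4 °C equilibration; 4-parameter IC50.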

SUDHL5 [3] = test: Induction of cytotoxicity (CellTiter-Glo, 5 h), SUDHL5; details: read-out: Cytotox SUDHL5 [M] (median); SUDHL5 cells, cytotoxicity induction, CellTiter-Glo, 5 h incubation, median
SUDHL10 [4] = test: Induction of caspase-3/7 activity (Caspase-Glo 3/7), SUDHL10; format: cell-based; details: caspase-3/7 induction, SUDHL10 cells, 3 h treatment, median
In short: as §1

SUDHL10 [5] = test: Induction of cytotoxicity (CellTiter-Glo, 5 h), SUDHL10
A2780 = test: Anti-proliferative effect (CellTiter-Glo, 72 h), A2780; format: cell-based; details: A2780 cells, median, read-out: IC50 antiproliferation assay A2780 [M] (median)
In short: as §2

[6] = read-out: Cytotox SUDHL10 [M] (median), SUDHL10 cells, cytotoxicity induction, CellTiter-Glo, 5 h incubation, median
[7] = Homo sapiens, SU-DHL10, 5 h, read-out: Cytotox SUDHL10 [M] (median), SUDHL10 cells, cytotoxicity induction, CellTiter-Glo, 5 h incubation, median

Chain of MCL-1 (Q07820 whole entry): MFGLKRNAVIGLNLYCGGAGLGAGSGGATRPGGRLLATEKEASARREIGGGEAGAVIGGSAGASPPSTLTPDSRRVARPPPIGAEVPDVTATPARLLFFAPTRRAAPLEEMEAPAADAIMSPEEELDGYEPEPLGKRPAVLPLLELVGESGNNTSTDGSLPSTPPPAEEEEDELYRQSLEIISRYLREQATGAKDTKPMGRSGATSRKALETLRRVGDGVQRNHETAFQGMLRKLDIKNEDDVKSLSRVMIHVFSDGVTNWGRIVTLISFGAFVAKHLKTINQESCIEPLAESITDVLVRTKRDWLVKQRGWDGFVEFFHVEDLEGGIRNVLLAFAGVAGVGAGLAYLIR

Row | EC50 (SUDHL5 [1]) | IC50 (SUDHL5 [2]) | IC50 (MCL-1) | EC50 (SUDHL10 [4]) | IC50 (A2780) | IC50 (SUDHL5 [2]; Homo sapiens, SU-DHL-5, 72 h) | IC50 (A2780; Homo sapiens, A2780, 72 h) | EC50 (SUDHL10 [4]; Homo sapiens, SU-DHL10, 3 h) | SMILES | IC50 (SUDHL5 [3]) | IC50 (SUDHL10 [5]; [6]) | IC50 (SUDHL10 [5]; [7])
1 | > 33 µM | 1.67e-05 M | 0.132 µM | > 33 µM | 1.92e-05 M | – | – | – | CCc1nn(C)c2c1-c1c(C)ccc3c(C(C)CCOc4cccc5cc(F)ccc45)c(C(=O)O)n(c13)CCCCOC2 (single isomer, unassigned) [Example 264, 3-ethyl-7-{4-[(6-fluoronaphthalen-1-yl)oxy]butan-2-yl}-1,4-dimethyl-1,10,11,12,13,15-hexahydropyrazolo[4′,3′:9,10][1,6]oxazacycloundecino[8,7,6-hi]indole-8-carboxylic Acid] | > 3.3e-05 M | > 3.3e-05 M | –
2 | 6.76 µM | – | 0.00384 µM | – | – | 1.71e-05 M | > 3.3e-05 M | 24.1 µM | CCn1nc(C2CC2)c2c1COCCCCn1c(C(=O)O)c(CCCOc3cccc4ccccc34)c3cccc-2c31 (single isomer, unassigned; enantiomer 1) [Example 089, 3-cyclopropyl-1-ethyl-7-[3-(naphthalen-1-yloxy)propyl]-1,10,11,12,13,15-hexahydropyrazolo[4′,3′:9,10][1,6]oxazacycloundecino[8,7,6-hi]indole-8-carboxylic acid-N-ethylethanamine Salt (Enantiomer 1)] | 7e-06 M | – | 3e-05 M
3 | 5.35 µM | 6.96e-08 M | 0.00761 µM | – | – | – | 2.55e-05 M | 23.2 µM | Cc1nn(CC(F)(F)F)c2c1-c1cccc3c(CCCOc4cccc5c4CCCC5)c(C(=O)O)n(c13)CCCCOC2 (single isomer, unassigned; enantiomer 1) [Example 162, 3-methyl-7-[3-(5,6,7,8-tetrahydronaphthalen-1-yloxy)propyl]-1-(2,2,2-trifluoroethyl)-1,10,11,12,13,15-hexahydropyrazolo[4′,3′:9,10][1,6]oxazacycloundecino[8,7,6-hi]indole-8-carboxylic acid-N-ethylethanamine Salt (Enantiomer 1)] | 8.92e-06 M | – | 2.3e-05 M

Continued, compound first:

Row | SMILES | EC50 (SUDHL5 [1]) | IC50 (SUDHL5 [2]) | IC50 (MCL-1) | EC50 (SUDHL10 [4]) | IC50 (A2780) | IC50 (SUDHL5 [2]; Homo sapiens, SU-DHL-5, 72 h) | IC50 (A2780; Homo sapiens, A2780, 72 h) | EC50 (SUDHL10 [4]; Homo sapiens, SU-DHL10, 3 h) | IC50 (SUDHL5 [3]) | IC50 (SUDHL10 [5]; [6]) | IC50 (SUDHL10 [5]; [7])
4 | Cc1nn(C)c2c1-c1cccc3c(CCCOc4cccc5ccccc45)c(C(=O)O)n(c13)CCCN(c1ccc(N3CCN(S(=O)(=O)N(C)C)CC3)cc1)C2 (single isomer, unassigned; enantiomer 1) [Example 1-106, 7-{4-[4-(Dimethylsulfamoyl)piperazin-1-yl]phenyl}-9,11-dimethyl-1-[3-(1-naphthyloxy)propyf]-4,5,6,7,8,9-hexahydropyrazolo[3′,4′:7,8][1,5]diazecino[9,10,1-hi]indole-2-carboxylic Acid (Enantiomer 1)] | 11.5 µM | – | 0.0163 µM | 9.37 µM | – | 4.15e-06 M | 8.83e-06 M | – | 1.49e-05 M | – | 1.89e-05 M
5 | Cc1c2c(nn1C)COCCCn1c(C(=O)O)c(CCCOc3cccc4ccccc34)c3cccc-2c31 (single isomer, unassigned; enantiomer 1) [Example 064, 10,11-dimethyl-1-[3-(naphthalen-1-yloxy)propyl]-5,6,8,10-tetrahydro-4H-pyrazolo[4′,3′:8,9][1,5]oxazecino[7,6,5-h]indole-2-carboxylic acid-N-ethylethanamine Salt (Enantiomer 1)] | 4.98 µM | 1.12e-05 M | 0.0115 µM | – | – | – | 3.14e-05 M | 17.5 µM | 7.53e-06 M | – | 2.59e-05 M
6 | Cc1nn(C)c2c1-c1cccc3c(CCCOc4cccc5cc(Cl)ccc45)c(C(=O)O)n(c13)CCCCOC2 (single isomer, unassigned; enantiomer 2) [Example 042, 7-{3-[(6-chloronaphthalen-1-yl)oxy]propyl}-1,3-dimethyl-1,10,11,12,13,15-hexahydropyrazolo[4′3′:9,10][1,6]oxazacycloundecino[8,7,6-hi]indole-carboxylic acid-N-ethylethanamine Salt (Enantiomer 2)] | > 33 µM | 4.97e-06 M | 0.0566 µM | > 33 µM | 1.02e-05 M | – | – | – | > 3.3e-05 M | 3e-05 M | –

From patent US10981932B2, “Macrocyclic indole derivatives” (Bayer Aktiengesellschaft, priority 2016, dated 2021)
